Measurements from patent publication US20190092720A1, “FUNCTIONALIZED BENZAMIDE DERIVATIVES AS ANTIVIRAL AGENTS AGAINST HBV INFECTION” (BARUCH S. BLUMBERG INSTITUTE, priority 2012, published 2019).

How the values were obtained:
[1] = test system: capsid-associated HBV DNA; test: Capsid-associated HBV DNA and DNA replication intermediates in AML12HBV10 cells; type: cell-based, Hepatitis B virus (HBV); details: 2 days, FIG. 1 panels D and E
Procedure: (§1) FIG. 1. Antiviral mechanism of the compounds of the present invention. AML12HBV10 cells were left untreated (NT) or treated with the indicated concentrations of the compounds of the disclosure Compound 6 and Compound 19, respectively, for 2 days. Bay-4109 (3 µM) or AT-61 (25 µM) served as positive controls. (A) Intracellular viral RNA was determined by Northern blot hybridization. Ribosomal RNA served as a loading control. (B) The total amounts of nucleocapsids were determined by a particle gel assay. (C) Encapsidated pgRNA were extracted and measured by Northern blot. (D) Nucleocapsid-associated HBV DNA was quantified by alkaline-treatment of nucleocapsids on the membrane following the particle gel assay and hybridized with a HBV-specific riboprobe. (E) HBV DNA replication intermediates were extracted and determined by Southern blot hybridizations.
Procedures of viral capsids and nucleocapsid-associated DNA analysis: AML12HB10 cells were lysed by addition of 300 μl buffer containing 10 mM Tris-HCl (pH7.6), 100 mM NaCl, 1 mM EDTA and 0.1% NP-40 to each well of 12-well plate. Cell debries were removed by centrifugation at 5000 g for 10 minutes. Ten microliters of the clarified cell lysates were fractionated by electrophoresis through nondenaturing 1% agarose gels and transferred to a nitrocellulose filter by blotting with TNE buffer (10 mM Tris-HCl, pH7.6; 150 mM NaCl and 1 mM EDTA). HBV capsids were detected by probing the membrane with an antibody against HBV core protein (DAKO). […] To detect capsid associated HBV DNA, the membrane were treated with buffer containing 0.5N NaOH and 1.5 M NaCl for 5 minutes and followed by neutralization with buffer containing 1 M TRIS-HCl and 1.5M NaCl for 5 minutes. The viral DNA was detected by hybridization with a α-^32P-UTP (800 Ci/mmol, Perkin Elmer) labeled minus strand specific full-length HBV riboprobe (Xu et al.).
To analyze the HBV DNA replication intermediates, cells were lysed by adding into each well of the 12-well plates 0.5 ml of lysis buffer containing 10 mM Tris-HCl (pH 8.0), 1 mM EDTA, 1% NP40 and 2% sucrose and incubating at 37° C. for 10 minutes. Cell debris and nuclei were removed by centrifugation and the supernatant was mixed with 130 μl of 35% polyethylene glycol (PEG) 8000 containing 1.5 M NaCl. After 1 hour incubation in ice, viral nucleocapsids were pelleted by centrifugation at 6,000×g for 5 minutes at 4° C., followed by 1 hour digestion at 37° C. in 400 μl of digestion buffer containing 0.5 mg/ml pronase (Calbiochem), 0.5% SDS, 150 mM NaCl, 25 mM Tris-HCl (pH 8.0) and 10 mM EDTA. The digestion mixture was extracted twice with phenol and DNA was precipitated with ethanol, dissolved in TE buffer (10 mM Tris-HCl, pH 8.0; 0.1 mM EDTA). […]

HBV mRNA = test: Intracellular viral RNA by Northern blot in AML12HBV10 cells; type: cell-based, Hepatitis B virus (HBV); details: 2 days, FIG. 1 panel A
Procedure: as §1
Procedure for analysis of HBV mRNA: Upon the completion of treatment, total cellular RNA was extracted with TRIzol reagents (Invitrogen). Five micrograms of total RNA was resolved in 1.5% agarose gel containing 2.2 M formadelhyde and transferred onto Hybond-XL membrane in 20×SSC buffer. The amounts of HBV mRNA were determined by Northern blot hybridization with an alpha-^32P-UTP labeled riboprobe specific for plus strand of HBV genome.

O=C(Nc1cccc(Cl)c1)c1scc2c1OCCO2 [Entry 6]
capsid-associated HBV DNA / DNA synthesis [1]: reduced encapsidated pgRNA and capsid-associated HBV DNA in a dose-dependent manner
amount of viral mRNA (HBV mRNA): did not affect
